Among the data in ChEMBL document CHEMBL1130217, “Use of a pharmacophore model for the design of EGF-R tyrosine kinase inhibitors: 4-(phenylamino)pyrazolo[3,4-d]pyrimidines” (J Med Chem, 1997) are IC50 values, retold here.

In test [1] the test system is Balb/MK. As to the kind of experiment: Inhibition of proliferation of EGF-dependent BALB/MK cells. The note with it: Mus musculus. In kind it is functional, cell-based.
Test [2] deals with Platelet-derived growth factor receptor (Homo sapiens, UniProt P09619+P16234). As to the kind of experiment: Inhibition of PDGF stimulated tyrosine phosphorylation in BALB/c3t3 cells.
For test [3], the target named is Proto-oncogene tyrosine-protein kinase Src (Homo sapiens, UniProt P12931). As to the kind of experiment: Inhibitory activity against c-Src tyrosine kinase.
In test [4] the target is Protein kinase C alpha type (Homo sapiens, UniProt P17252). As to the kind of experiment: Inhibitory activity against protein kinase C alpha […] kinase.
In test [5] the target is T1, Epidermal growth factor receptor (Homo sapiens, UniProt P00533).
Description: Inhibitory activity against epidermal growth factor receptor tyrosine kinase.
Test [6] deals with Tyrosine-protein kinase ABL1 (Homo sapiens, UniProt P00519).
Description: Inhibitory activity against v-Abl tyrosine kinase
Test [7] concerns the target Cyclin-dependent kinase 1 (Homo sapiens, UniProt P06493). Put plainly: Inhibitory activity against CDK1 Ser/Thr kinase.
For test [8], the target named is T1, Epidermal growth factor receptor. Put plainly: Inhibition of EGF-stimulated tyrosine phosphorylation in A431 cells.

Chain of Cyclin-dependent kinase 1 (P06493 whole entry): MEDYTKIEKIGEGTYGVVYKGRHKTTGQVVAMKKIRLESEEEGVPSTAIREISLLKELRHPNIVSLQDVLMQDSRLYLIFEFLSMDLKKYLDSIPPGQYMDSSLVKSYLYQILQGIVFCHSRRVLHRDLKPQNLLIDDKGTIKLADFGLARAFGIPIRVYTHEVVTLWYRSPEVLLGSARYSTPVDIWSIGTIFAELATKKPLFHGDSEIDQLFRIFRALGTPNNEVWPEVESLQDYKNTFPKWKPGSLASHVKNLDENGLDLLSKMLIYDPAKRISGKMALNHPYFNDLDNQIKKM
Chain of Tyrosine-protein kinase ABL1 (P00519 whole entry, looked up): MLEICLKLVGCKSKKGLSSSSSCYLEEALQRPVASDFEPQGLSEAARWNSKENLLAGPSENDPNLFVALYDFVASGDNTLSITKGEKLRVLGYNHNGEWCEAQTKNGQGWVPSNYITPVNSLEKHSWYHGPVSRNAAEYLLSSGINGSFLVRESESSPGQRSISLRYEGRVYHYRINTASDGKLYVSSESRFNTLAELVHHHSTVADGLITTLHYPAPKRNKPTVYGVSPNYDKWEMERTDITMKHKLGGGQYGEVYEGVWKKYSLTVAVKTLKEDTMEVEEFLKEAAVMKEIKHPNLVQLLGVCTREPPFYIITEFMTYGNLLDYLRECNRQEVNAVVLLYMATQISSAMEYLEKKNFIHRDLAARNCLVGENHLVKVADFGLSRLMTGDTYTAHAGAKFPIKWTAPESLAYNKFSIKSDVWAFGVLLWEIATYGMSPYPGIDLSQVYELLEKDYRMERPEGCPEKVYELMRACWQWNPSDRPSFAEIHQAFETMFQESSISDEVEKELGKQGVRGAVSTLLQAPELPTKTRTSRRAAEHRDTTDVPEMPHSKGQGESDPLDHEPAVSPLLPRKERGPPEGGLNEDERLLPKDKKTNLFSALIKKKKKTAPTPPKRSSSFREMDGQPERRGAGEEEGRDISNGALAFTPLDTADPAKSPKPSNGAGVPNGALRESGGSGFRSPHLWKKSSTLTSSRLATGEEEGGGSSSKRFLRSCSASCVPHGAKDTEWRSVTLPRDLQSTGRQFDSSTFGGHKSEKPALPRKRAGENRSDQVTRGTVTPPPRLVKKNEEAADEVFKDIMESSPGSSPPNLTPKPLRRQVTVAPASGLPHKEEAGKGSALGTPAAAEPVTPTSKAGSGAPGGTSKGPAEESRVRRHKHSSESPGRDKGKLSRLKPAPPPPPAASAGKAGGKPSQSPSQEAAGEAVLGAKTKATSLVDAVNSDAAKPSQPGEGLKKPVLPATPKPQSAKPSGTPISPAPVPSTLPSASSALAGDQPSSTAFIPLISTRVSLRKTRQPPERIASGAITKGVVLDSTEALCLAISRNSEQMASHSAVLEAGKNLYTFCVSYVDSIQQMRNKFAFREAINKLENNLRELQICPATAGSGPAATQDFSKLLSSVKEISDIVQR
Chain of Proto-oncogene tyrosine-protein kinase Src (P12931 2-536 limits assumed): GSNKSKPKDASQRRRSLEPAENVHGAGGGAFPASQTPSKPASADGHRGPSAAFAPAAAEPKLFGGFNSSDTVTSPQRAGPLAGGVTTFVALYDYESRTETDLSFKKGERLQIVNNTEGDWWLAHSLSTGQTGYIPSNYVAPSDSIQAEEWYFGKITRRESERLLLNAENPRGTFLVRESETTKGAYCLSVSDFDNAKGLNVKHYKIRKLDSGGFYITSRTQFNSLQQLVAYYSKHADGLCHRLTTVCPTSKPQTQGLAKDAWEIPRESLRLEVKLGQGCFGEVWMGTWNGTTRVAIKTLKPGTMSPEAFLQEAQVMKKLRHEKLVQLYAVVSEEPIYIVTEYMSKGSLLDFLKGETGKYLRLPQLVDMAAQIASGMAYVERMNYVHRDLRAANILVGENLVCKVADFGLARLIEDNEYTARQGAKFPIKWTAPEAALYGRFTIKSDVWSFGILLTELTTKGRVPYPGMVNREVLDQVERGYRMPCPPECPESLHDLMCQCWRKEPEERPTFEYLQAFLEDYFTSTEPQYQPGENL
T1 sequence (P00533 whole entry): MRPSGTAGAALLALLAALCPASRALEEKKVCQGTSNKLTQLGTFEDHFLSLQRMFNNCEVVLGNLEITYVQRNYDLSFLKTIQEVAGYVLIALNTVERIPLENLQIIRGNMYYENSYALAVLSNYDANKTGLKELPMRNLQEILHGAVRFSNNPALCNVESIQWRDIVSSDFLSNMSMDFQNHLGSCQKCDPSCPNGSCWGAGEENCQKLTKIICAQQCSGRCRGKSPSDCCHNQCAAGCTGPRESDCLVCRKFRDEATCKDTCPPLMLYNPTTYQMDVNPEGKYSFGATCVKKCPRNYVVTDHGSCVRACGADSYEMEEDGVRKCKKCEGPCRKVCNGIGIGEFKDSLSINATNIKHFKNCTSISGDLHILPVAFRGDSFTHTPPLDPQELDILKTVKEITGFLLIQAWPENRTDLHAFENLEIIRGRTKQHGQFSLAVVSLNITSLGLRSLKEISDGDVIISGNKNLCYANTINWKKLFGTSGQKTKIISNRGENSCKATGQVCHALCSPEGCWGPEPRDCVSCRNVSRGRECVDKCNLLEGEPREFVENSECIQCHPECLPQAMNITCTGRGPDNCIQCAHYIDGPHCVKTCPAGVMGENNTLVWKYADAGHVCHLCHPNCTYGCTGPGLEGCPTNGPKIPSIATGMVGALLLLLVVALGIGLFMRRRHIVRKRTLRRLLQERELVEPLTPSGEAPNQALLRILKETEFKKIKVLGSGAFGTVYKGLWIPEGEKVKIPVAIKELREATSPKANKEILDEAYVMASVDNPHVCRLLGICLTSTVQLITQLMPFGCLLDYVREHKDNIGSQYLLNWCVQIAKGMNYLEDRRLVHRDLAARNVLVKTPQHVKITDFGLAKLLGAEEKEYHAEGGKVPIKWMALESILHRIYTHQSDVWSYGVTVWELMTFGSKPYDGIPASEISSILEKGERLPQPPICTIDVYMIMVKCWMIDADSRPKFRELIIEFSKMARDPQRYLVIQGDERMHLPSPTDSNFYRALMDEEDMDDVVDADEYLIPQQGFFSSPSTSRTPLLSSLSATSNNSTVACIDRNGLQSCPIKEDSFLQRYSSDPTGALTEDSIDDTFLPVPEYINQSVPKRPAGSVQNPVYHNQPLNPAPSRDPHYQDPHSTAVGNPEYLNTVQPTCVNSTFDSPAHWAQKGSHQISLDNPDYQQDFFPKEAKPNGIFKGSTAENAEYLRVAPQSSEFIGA

What is called IC50 is the concentration needed to halve the response being measured. A low value points to greater potency. Regarding `Nc1ccc(-c2[nH]nc3ncnc(Nc4cccc(Cl)c4)c23)cc1`, the 50% inhibitory concentration (IC50) in test [1] was 0.78 µM; in test [2], greater than 10 µM; in test [3], 4.9 µM; in test [4] it was 3.6 µM; in test [5], 0.002 µM; in test [6] it was 3.6 µM. The IC50 is 4.5 µM in test [7] and 0.8 µM in test [8].
Regarding `O=[N+]([O-])c1cccc(-c2[nH]nc3ncnc(Nc4cccc(Cl)c4)c23)c1`, the IC50 in test [1] is greater than 50 µM; in test [2] it was greater than 10 µM; in test [3], 9.8 µM; in test [4], greater than 10 µM; in test [5] it was 0.27 µM; in test [6], greater than 10 µM. Moreover, the half-inhibitory concentration (IC50) in test [7] and in test [8] was greater than 100 µM throughout.
On to `CN(C)c1ccc(Nc2[nH]nc3ncnc(Nc4cccc(Cl)c4)c23)cc1`, for which the IC50 in test [1] is 1.55 µM; in test [2], 10 µM; in test [3], greater than 10 µM; in test [4], 2.9 µM; in test [5] it was 0.029 µM; in test [6] it was greater than 10 µM. Also, the half-maximal inhibitory concentration (IC50) in test [7] stood at 0.35 µM; in test [8], 1.5 µM.
As for `Oc1cccc(-c2[nH]nc3ncnc(Nc4cccc(Cl)c4)c23)c1`, the half-inhibitory concentration (IC50) is 0.99 µM in test [1]; greater than 10 µM in test [2]; 0.002 µM in test [3]; greater than 10 µM in test [4]; 0.026 µM in test [5]; 0.18 µM in test [6]. Moreover, the IC50 in test [7] was 0.2 µM; in test [8] it was 1.5 µM.
On to `Nc1ncnc2c1ncn2-c1ccccc1`, for which the half-maximal inhibitory concentration (IC50) in test [5] was 15 µM.
As to `Nc1ccc(Nc2[nH]nc3ncnc(Nc4cccc(Cl)c4)c23)cc1`, the IC50 in test [2] is greater than 10 µM; in test [3], 2.4 µM; in test [4], greater than 1 µM; in test [6], 1.18 µM; in test [7], greater than 1 µM.
The compound `Nc1ncnc2c1cnn2-c1ccccc1` gave an IC50 in test [5] of 2.7 µM.
Take `COc1cccc(Nc2[nH]nc3ncnc(Nc4cccc(Cl)c4)c23)c1`: the half-maximal inhibitory concentration (IC50) in test [1] was 0.95 µM; in test [2] it was greater than 10 µM; in test [3], 7.8 µM; in test [4], 4.7 µM; in test [5] it was 0.008 µM; in test [6] it was 3.4 µM. Further, the half-inhibitory concentration (IC50) in test [7] was found to be 4.3 µM; in test [8] it was 0.8 µM.
Turning to `COc1ccc(-c2[nH]nc3ncnc(Nc4cccc(Cl)c4)c23)cc1`, the concentration for half-maximal inhibition (IC50) in test [1] was 1.6 µM; in test [2] it was greater than 10 µM; in test [3] it was greater than 10 µM; in test [4], greater than 10 µM; in test [5] it was 0.096 µM; in test [6], 16.5 µM. Besides, the values for the IC50 in test [7] and in test [8] were greater than 100 µM and 1.5 µM, respectively.
On to `Clc1cccc(Nc2[nH]nc3ncnc(Oc4cccc(Cl)c4)c23)c1`, for which the IC50 in test [1] is greater than 50 µM; in test [2], greater than 10 µM; in test [3], greater than 10 µM; in test [4] it was greater than 100 µM; in test [5], 24.2 µM; in test [6], greater than 10 µM. For the same compound, the half-maximal inhibitory concentration (IC50) in test [8] is greater than 100 µM.
On to `COc1ccc(CNc2[nH]nc3ncnc(Nc4cccc(Cl)c4)c23)cc1`, for which the 50% inhibitory concentration (IC50) in test [1] is 0.86 µM; in test [2] it was greater than 10 µM; in test [3] it was greater than 10 µM; in test [4], greater than 100 µM; in test [5], 0.007 µM; in test [6] it was greater than 10 µM. For the same compound, the half-maximal inhibitory concentration (IC50) in test [7] was 5 µM; in test [8] it was 0.02 µM.
Take `CC(C)(C)OC(=O)Nc1ccc(-c2[nH]nc3ncnc(Nc4cccc(Cl)c4)c23)cc1`: the IC50 is 4.3 µM in test [1]; greater than 10 µM in test [2]; 9.8 µM in test [3]; greater than 10 µM in test [4]; 0.27 µM in test [5]; 1.5 µM in test [8].
Turning to `Oc1ccc(Nc2[nH]nc3ncnc(Nc4cccc(Cl)c4)c23)cc1`, the half-maximal inhibitory concentration (IC50) is 1.06 µM in test [1]; greater than 10 µM in test [2]; 0.4 µM in test [3]; greater than 1 µM in test [4]; 0.008 µM in test [5]; 0.15 µM in test [6]. Also, the figures for the concentration for half-maximal inhibition (IC50) in test [7] and in test [8] were greater than 1 µM and 0.04 µM, respectively.
As for `Clc1cccc(CNc2[nH]nc3ncnc(Nc4cccc(Cl)c4)c23)c1`, the IC50 is 3.19 µM in test [1]; greater than 10 µM in test [2]; 2.09 µM in test [3]; greater than 10 µM in test [4]; 0.026 µM in test [5]; greater than 10 µM in test [6]. In addition, the IC50 in test [7] turned out to be 16 µM; in test [8], 1.5 µM.
As to `Oc1ccc(-c2[nH]nc3ncnc(Nc4cccc(Cl)c4)c23)cc1`, the IC50 is 0.56 µM in test [1]; greater than 10 µM in test [2]; 8.55 µM in test [3]; 1.85 µM in test [4]; 0.006 µM in test [5]; 0.24 µM in test [6]. Further, the half-inhibitory concentration (IC50) was found to be 0.26 µM in test [7] and 0.5 µM in test [8].
`c1ccc(Nc2ncnc3n[nH]c(Nc4ccccc4)c23)cc1`: the 50% inhibitory concentration (IC50) in test [1] is 8.4 µM; in test [2], greater than 10 µM; in test [3], 75 µM; in test [4] it was 6.9 µM; in test [5], 0.058 µM; in test [6], 1.96 µM. In test [8], this compound gave an IC50 of 12 µM.
`Cc1c(C)n(-c2ccccc2)c2ncnc(N)c12`: inhibition in test [5] was half-maximal at 2.71 µM (IC50).
For `Nc1cccc(-c2[nH]nc3ncnc(Nc4cccc(Cl)c4)c23)c1`, the half-maximal inhibitory concentration (IC50) is 0.94 µM in test [1]; greater than 10 µM in test [2]; greater than 10 µM in test [3]; 1.5 µM in test [4]; 0.005 µM in test [5]; 3.09 µM in test [6]. Moreover, the IC50 worked out at 0.68 µM in test [7] and 0.8 µM in test [8].
On to `COc1cccc(CNc2[nH]nc3ncnc(Nc4cccc(Cl)c4)c23)c1`, for which the IC50 in test [1] is 0.81 µM; in test [2], greater than 10 µM; in test [3] it was greater than 10 µM; in test [4], greater than 100 µM; in test [5], 0.008 µM; in test [6] it was 3.5 µM. Besides, the IC50 was determined as 3.1 µM in test [7] and 0.2 µM in test [8].
As to `Clc1cccc(Nc2[nH]nc3ncnc(Nc4ccccc4)c23)c1`, the half-inhibitory concentration (IC50) in test [1] is 2.56 µM; in test [2], greater than 10 µM; in test [3] it was 2.25 µM; in test [4], 7.8 µM; in test [5] it was 0.084 µM; in test [6] it was 1.36 µM. It took 1 µM to reach half-maximal inhibition in test [8] (IC50).
`Nc1[nH]cnc2nnc(Nc3cccc(Cl)c3)c1-2`: the concentration for half-maximal inhibition (IC50) in test [1] was 14 µM; in test [2], greater than 10 µM; in test [3] it was 6 µM; in test [4], 24 µM; in test [5], 0.16 µM; in test [6], 0.41 µM. In test [8], this compound registered a half-maximal inhibitory concentration (IC50) of 35 µM.
Consider `Cc1c(C)n(C)c2ncnc(Nc3cccc(Cl)c3)c12`, for which, in test [5], half-maximal inhibition (IC50) required 450 µM.
Turning to `Nc1nc(N)c2c(Nc3cccc(Cl)c3)[nH]nc2n1`, the IC50 in test [1] is 2.87 µM; in test [2], greater than 10 µM; in test [3], 6 µM; in test [4], 24 µM; in test [5] it was 0.22 µM; in test [6], 0.41 µM. In test [8], this compound came in with an IC50 of 9 µM.
Take `COc1cc2ncnc(Nc3cccc(Br)c3)c2cc1OC`: the IC50 in test [1] was 0.2 µM; in test [3] it was 1.4 µM; in test [4], greater than 100 µM; in test [7], 100 µM.
